The supplement of paper PMC10307832

What was measured:
Test in all cases: relative viability (nuclei count vs DMSO), 5 days (fraction); higher = more cells survive
Dasatinib + Trametinib = compound: Cc1nc(Nc2ncc(C(=O)Nc3c(C)cccc3Cl)s2)cc(N2CCN(CCO)CC2)n1 [Dasatinib] + CC(=O)Nc1cccc(-n2c(=O)n(C3CC3)c(=O)c3c(Nc4ccc(I)cc4F)n(C)c(=O)c(C)c32)c1 [Trametinib] (partner 0.02 µM)
Procedure, shortened: (§1)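 Five library-drug doses in √10 steps were combined with a fixed anchor-drug dose, or a single drug was given alone, by pin tool to lung cancer cell lines in 1536-well plates the day after seeding. Nuclei were stained and counted after 5 days. Relative viability is the nuclei count in treated wells over that in vehicle wells, taken as the median of duplicate plates.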

XMD13-2 + Luminespib = compound: C1CC1C(=O)NC2=NNC3=C2C=CC(=C3)C4=CC(=CC=C4)C(=O)NC5CC5 [XMD13-2] + CCNC(=O)c1noc(-c2cc(C(C)C)c(O)cc2O)c1-c1ccc(CN2CCOCC2)cc1 [Luminespib] (partner 0.01 µM)
Procedure, shortened: as §1

Dasatinib + Phenformin = compound: Cc1nc(Nc2ncc(C(=O)Nc3c(C)cccc3Cl)s2)cc(N2CCN(CCO)CC2)n1 [Dasatinib] + N=C(N)NC(=N)NCCc1ccccc1 [Phenformin] (partner 250 µM)
Procedure, shortened: as §1

ALW-II-49-7 + Navitoclax = compound: Cc1ccc(C(=O)Nc2cccc(C(F)(F)F)c2)cc1Nc1cncc(C(N)=O)c1 [ALW-II-49-7] + CC1(C)CCC(c2ccc(Cl)cc2)=C(CN2CCN(c3ccc(C(=O)NS(=O)(=O)c4ccc(N[C@H](CCN5CCOCC5)CSc5ccccc5)c(S(=O)(=O)C(F)(F)F)c4)cc3)CC2)C1 [Navitoclax] (partner 0.5 µM)
Procedure, shortened: as §1

## UMC-11
Dasatinib + Trametinib; first compound 0.005 µM
  relative viability: 0.675
Dasatinib + Trametinib; first compound 0.01581 µM
  relative viability: 0.63
Dasatinib + Trametinib; first compound 0.05 µM
  relative viability: 0.631
Dasatinib + Trametinib; first compound 0.1581 µM
  relative viability: 0.358
Dasatinib + Trametinib; first compound 0.5 µM
  relative viability: 0.317
XMD13-2 + Luminespib; first compound 0.05 µM
  relative viability: 1.11
XMD13-2 + Luminespib; first compound 0.1581 µM
  relative viability: 1.02
XMD13-2 + Luminespib; first compound 0.5 µM
  relative viability: 0.992
XMD13-2 + Luminespib; first compound 1.581 µM
  relative viability: 0.961
XMD13-2 + Luminespib; first compound 5 µM
  relative viability: 0.974
Dasatinib + Phenformin; first compound 0.005 µM
  relative viability: 0.307
Dasatinib + Phenformin; first compound 0.01581 µM
  relative viability: 0.332
Dasatinib + Phenformin; first compound 0.05 µM
  relative viability: 0.265
Dasatinib + Phenformin; first compound 0.1581 µM
  relative viability: 0.234
Dasatinib + Phenformin; first compound 0.5 µM
  relative viability: 0.171
ALW-II-49-7 + Navitoclax; first compound 0.08 µM
  relative viability: 0.311
ALW-II-49-7 + Navitoclax; first compound 0.253 µM
  relative viability: 0.345
ALW-II-49-7 + Navitoclax; first compound 2.53 µM
  relative viability: 0.322
ALW-II-49-7 + Navitoclax; first compound 8 µM
  relative viability: 0.335
